Assay results as given in patent publication US20260234185A1, “ANTI-AGING COMPOSITION COMPRISING PEPTIDE COMPLEX AS ACTIVE INGREDIENT” (priority 2023, published 2026).
Where no end group is shown, it is not given here.

Assays:
Assay type in all cases: cell-based
[1] = system: fibroblast growth factor 21 (FGF21); test: Western blot of FGF21 protein expression in adipocytes; conditions: differentiated 3T3-L1 adipocytes; 0.2, 2, 20 μg/mL; 1 hour; Western blot (FIGS. 1a, 1b)
Description: (§1) An experiment was performed to determine whether the peptide complex prepared in Preparation Example 1 using adipocytes increases the phosphorylation of AMP-activated protein kinase (AMPK), which is a longevity-related protein, and increases the expression levels of sirtuin 1 (SIRT1) and fibroblast growth factor 21 (FGF21) proteins in adipocytes.
(§2) When 3T3-L1 preadipocytes reached 80% confluence, they were seeded at 5×10^3 cells/well in a 96-well plate and used for the experiment. Two days after reaching confluence, the medium was replaced with a differentiation-inducing medium to induce the differentiation into adipocytes, and two days after the induction, the cells were cultured for 2 days in a medium containing 10% FBS and 10 μg/mL insulin, and then the medium was replaced with 10% FBS every 2 days until their differentiation into adipocytes. Once the differentiation was complete, the medium was replaced with a serum-free medium and cultured for 4 hours to induce starvation. The peptide complexes were treated at concentrations of 0.2 μg/mL, 2 μg/mL, and 20 μg/mL, incubated for 1 hour, dissolved by adding dissolution buffer thereto, and the proteins obtained by centrifugation at 4° C. and 12,000 rpm for 30 minutes were quantified using a BCA kit. […]

sirtuin 1 (SIRT1) gene = test: RT-PCR of SIRT1 gene expression in palmitate-treated adipocytes; conditions: 3T3-L1 adipocytes, 25 μM palmitate 30 minutes; 0.2, 2, 20 μg/mL; 24 hours; RT-PCR vs palmitate control (PA) (FIGS. 4a, 4b)
Description: (§3) An experiment was performed to determine whether the peptide complex prepared in Preparation Example 1 increases the gene expression of longevity-related genes, FGF21, SIRT1, AMPK, and FOXO3A, in adipocytes in a state of insulin metabolic disorder induced by palmitate treatment.
(§4) When 3T3-L1 preadipocytes reached 80% confluence, they were seeded at 5×10^3 cells/well in a 96-well plate and used for the experiment. Two days after reaching confluence, the medium was replaced with differentiation-inducing medium to induce the differentiation into adipocytes, and two days after the induction, the medium was cultured for 2 days in a medium containing 10% FBS and 10 μg/mL insulin, and then the medium was replaced with 10% FBS every 2 days until their differentiation into adipocytes. After differentiation was complete, the medium was replaced with glucose-free medium, cultured for 16 hours, and then starvation was induced by culturing for 40 minutes in 100 μL KPPH buffer containing 2% BSA. After treating with 25 μM palmitate for 30 minutes, the peptide complexes were treated at concentrations of 0.2 μg/mL, 2 μg/mL, and 20 μg/mL, cultured for 24 hours, and RNA was extracted after 24 hours and RT-PCR was performed. […] Subsequently, the mRNA expression pattern was determined by agarose gel electrophoresis.

[2] = system: inflammatory cytokine TNFα; test: Western blot of TNFα expression in adipocytes with palmitate-induced inflammation; conditions: 3T3-L1 adipocytes, inflammation induced by 25 μM palmitate; 0.2, 2, 20 μg/mL; 24 hours; Western blot vs PA control (FIGS. 5a, 5b)
Description: An experiment was performed to determine whether the peptide complex prepared in Preparation Example 1 induces a decrease in the phosphorylation of IκBα and a decrease in the expression level of the inflammatory cytokine TNFα in adipocytes under an inflammatory state induced by palmitate treatment.
When 3T3-L1 preadipocytes reached 80% confluence, they were seeded at 5×10^3 cells/well in a 96-well plate and used for the experiment. Two days after reaching confluence, the medium was replaced with a differentiation-inducing medium to induce the differentiation into adipocytes. Two days after the induction, the cells were cultured for 2 days in a medium containing 10% FBS and 10 μg/mL insulin, and then the medium was replaced with 10% FBS every days 2 until their differentiation into adipocytes. Once the differentiation was complete, the medium was replaced with a serum-free medium and cultured for 4 hours to induce starvation. After treating with 25 μM palmitate for 30 minutes, the peptide complexes were treated at concentrations of 0.2 μg/mL, 2 μg/mL, and 20 μg/mL and incubated for 24 hours. The control group (PA) was treated only with palmitate but not with the peptide complex. After dissolving by adding dissolution buffer thereto, the proteins obtained by centrifugation at 4° C. and 12,000 rpm for 30 minutes were quantified using a BCA kit. […]

FOXO3A gene = test: RT-PCR of FOXO3A gene expression in palmitate-treated adipocytes; conditions: 3T3-L1 adipocytes, 25 μM palmitate 30 minutes; 0.2, 2, 20 μg/mL; 24 hours; RT-PCR vs palmitate control (PA) (FIGS. 4a, 4b)
Description: as §3, §4

[3] = system: AMP-activated protein kinase (AMPK); test: Western blot of AMPK phosphorylation in adipocytes; conditions: differentiated 3T3-L1 adipocytes; 0.2, 2, 20 μg/mL; 1 hour; Western blot (FIGS. 1a, 1b)
Description: as §1, §2

peptide complex: prepared by mixing equal amounts of the peptide of SEQ ID NO: 1 (LKTRN) and the peptide of SEQ ID NO: 2 (KGSATGWMA) (also: mixture of two peptides)
expression level of FGF21 protein [1]: increased | expression of sirtuin 1 (SIRT1) gene (sirtuin 1 (SIRT1) gene): increased | expression level of TNFα [2]: reduced | expression of FOXO3A gene (FOXO3A gene): increased | phosphorylation of AMPKα [3]: increased
